Test systems include 786-0 renal; CAKI-1 renal; CCRF-CEM leukemia; LOX IMVI melanoma; MCF7 breast; OVCAR-3 ovarian; PC-3 prostate; SF-268 CNS; SK-OV-3 ovarian; SR leukemia; T-47D breast; TK-10 renal; UO-31 renal.
What all share (assay): NCI anticancer screen, dose series, 48 h

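Five concentrations, 48 hours, 96-well plates. Definition used: TGI = concentration required for complete inhibition of growth.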

Take `CSC(=S)Nc1cccc(C)n1`: the TGI with 786-0 renal, with CAKI-1 renal, in the test on CCRF-CEM leukemia, in the test with LOX IMVI melanoma, with MCF7 breast and with OVCAR-3 ovarian was more than 100 µM each time. In addition, the TGI in the test with PC-3 prostate, in the test with SF-268 CNS, with SK-OV-3 ovarian, in the test on SR leukemia, in the test with T-47D breast and in the test with TK-10 renal was more than 100 µM each time. Also, in the test with UO-31 renal, the TGI was more than 100 µM.

For `[N-]=[N+]=NI1OC(=O)c2ccccc21`, the TGI in the test on 786-0 renal is more than 100 µM; in the test on CAKI-1 renal, 46.9 µM; in the test with CCRF-CEM leukemia, more than 100 µM; with LOX IMVI melanoma, more than 100 µM; in the test with MCF7 breast it was more than 100 µM; in the test with OVCAR-3 ovarian it was more than 100 µM. For the same compound, the TGI with PC-3 prostate, in the test with SF-268 CNS, in the test with SK-OV-3 ovarian, in the test on SR leukemia, in the test on T-47D breast and in the test with TK-10 renal was more than 100 µM throughout. The same compound showed a TGI in the test on UO-31 renal of more than 100 µM.

On to `Cc1cn(CCCCC2=NCCCN2)c(=O)[nH]c1=O`, for which the TGI in the test with 786-0 renal is more than 30.1 µM; with CAKI-1 renal, more than 23.4 µM; with CCRF-CEM leukemia it was more than 23 µM; in the test with LOX IMVI melanoma, more than 32.6 µM; with MCF7 breast, more than 34.4 µM; in the test on OVCAR-3 ovarian, more than 33.1 µM. Also, the TGI in the test with PC-3 prostate is more than 35 µM; with SF-268 CNS, more than 24.2 µM; in the test on SK-OV-3 ovarian it was more than 40.7 µM; in the test on SR leukemia, more than 41 µM; in the test on T-47D breast, more than 23.9 µM; in the test with TK-10 renal it was more than 36.6 µM. This compound also gave a TGI with UO-31 renal of more than 31 µM.

With `c1ccc2oc(-c3ccc(-c4nc5ccccc5o4)c4c3CC4)nc2c1`, the TGI in the test with 786-0 renal, in the test on CAKI-1 renal, with CCRF-CEM leukemia, in the test with LOX IMVI melanoma, with MCF7 breast and in the test with OVCAR-3 ovarian was more than 100 µM in each case. Further, the TGI in the test with PC-3 prostate, in the test with SF-268 CNS, with SK-OV-3 ovarian, in the test with SR leukemia, in the test with T-47D breast and in the test with TK-10 renal was more than 100 µM throughout. In the test with UO-31 renal, the TGI is more than 100 µM.

In the case of `Oc1[nH]c2ccccc2c1N=NC(=S)Nc1ccccc1Cl`, the TGI was found to be 20.8 µM in the test on 786-0 renal; 8.78 µM with CAKI-1 renal; 49.9 µM with CCRF-CEM leukemia; 27.4 µM in the test with LOX IMVI melanoma; 33.4 µM in the test with MCF7 breast; 37.6 µM in the test on OVCAR-3 ovarian. Moreover, the TGI with PC-3 prostate was more than 100 µM; with SF-268 CNS it was 56.9 µM; with SK-OV-3 ovarian, 35.5 µM; in the test on SR leukemia it was 1.16 µM; in the test on T-47D breast it was more than 100 µM; with TK-10 renal, 10.3 µM. This compound displayed a TGI with UO-31 renal of 81.6 µM.

For the compound `O=[N+]([O-])c1ccc(C(=S)Nc2ccccc2)o1`, the TGI in the test with 786-0 renal is 6.19 µM; in the test with CAKI-1 renal, 13.9 µM; in the test on CCRF-CEM leukemia, 11.4 µM; with LOX IMVI melanoma it was 8.6 µM; in the test with MCF7 breast, 5.57 µM; in the test with OVCAR-3 ovarian, 6.38 µM. Moreover, the TGI with PC-3 prostate worked out at 4.63 µM; with SF-268 CNS, 13 µM; in the test on SK-OV-3 ovarian, 24 µM; in the test with SR leukemia, 10 µM; with T-47D breast, 95.1 µM; with TK-10 renal it was 14.1 µM. For the same compound, the TGI in the test with UO-31 renal worked out at 5.73 µM.

In the case of `COc1ccc(OC)c(N(CN2C(=O)CCC2C(=O)O)C(C)=O)c1` (stereo not given), the TGI in the test on 786-0 renal, in the test with CAKI-1 renal, in the test on CCRF-CEM leukemia, in the test on LOX IMVI melanoma, in the test on MCF7 breast and in the test with OVCAR-3 ovarian was more than 100 µM in each case. Further, the TGI in the test with PC-3 prostate, in the test with SF-268 CNS, in the test on SK-OV-3 ovarian, in the test with SR leukemia, in the test with T-47D breast and with TK-10 renal was more than 100 µM in each case. In addition, in the test on UO-31 renal, the TGI is more than 100 µM.

Consider `COc1ccc(/C(Br)=C2\OC(=O)c3ccccc32)cc1`, for which the TGI with 786-0 renal, in the test on CAKI-1 renal, in the test with CCRF-CEM leukemia, in the test on LOX IMVI melanoma, in the test on MCF7 breast and in the test with OVCAR-3 ovarian was more than 10 µM throughout. For the same compound, the TGI in the test with PC-3 prostate, in the test on SF-268 CNS, in the test with SK-OV-3 ovarian, in the test with SR leukemia, with T-47D breast and in the test with TK-10 renal was more than 10 µM each time. Further, the TGI in the test with UO-31 renal is more than 10 µM.

As for `O=C(/C=C/c1ccc(Oc2cc(C(=O)/C=C/c3ccc(O)cc3)c(O)cc2O)cc1)c1ccc(O)cc1O`, the TGI in the test on 786-0 renal stood at 16 µM; in the test on CAKI-1 renal, 18.1 µM; in the test on CCRF-CEM leukemia, 10.8 µM; in the test with LOX IMVI melanoma, 28.6 µM; in the test on MCF7 breast, 19.5 µM; in the test with OVCAR-3 ovarian, 11.9 µM. Besides, the TGI with PC-3 prostate was 24.9 µM; with SF-268 CNS, 28.3 µM; with SK-OV-3 ovarian, 8.88 µM; in the test on SR leukemia it was more than 100 µM; in the test with T-47D breast, 27.4 µM; in the test with TK-10 renal, 11.6 µM. Moreover, the TGI in the test on UO-31 renal was more than 100 µM.

For the compound `c1cc2nnc1SCCCSc1ccc(nn1)SCCCS2`, the TGI in the test on 786-0 renal is more than 100 µM; in the test on CAKI-1 renal, more than 100 µM; with CCRF-CEM leukemia, more than 100 µM; with LOX IMVI melanoma it was more than 48.4 µM; in the test with MCF7 breast, more than 100 µM; in the test on OVCAR-3 ovarian, more than 74.1 µM. Besides, the TGI was more than 100 µM in the test on PC-3 prostate; more than 100 µM with SF-268 CNS; 92.3 µM in the test on SK-OV-3 ovarian; more than 100 µM with SR leukemia; more than 100 µM with T-47D breast; 98.8 µM in the test with TK-10 renal. Further, the TGI with UO-31 renal was more than 100 µM.
